Reference: US8987334B2, “Cosmetic and pharmaceutical formulations of calixarene molecules” (priority 2008, dated 2015)

Experiment: Transcutaneous passage kinetics of calixarene in Franz cell
Format: in vitro ADME, pig
Conditions: released from 1 ml nanoemulsion loaded with 4 mg/g calixarene; 24 hours exposure; occlusive; HPLC LD=17 ng/ml, LQ=52 ng/ml

With “1,3,5-O-Me-2,4,6-OCH2COOH-p-tert-butylcalix[6]arene [calixarene]” the “transcutaneous passage of calixarene” value was “did not pass through the skin”.
